Test: xn = mol fraction of the nth substance listed
Settings: Liquid, Vibrating tube method

CCCCCCCCC [nonane] + CCCO
mass density [kg/m3]
Settings | 343.15 K | 353.15 K
100 kPa, x2 = 0.1231 | – | 666.99
100 kPa, x2 = 0.2315 | – | 669.25
100 kPa, x2 = 0.3229 | – | 671.68
100 kPa, x2 = 0.4272 | – | 676.17
100 kPa, x2 = 0.7021 | – | 697.1
100 kPa, x2 = 0.8941 | – | 723.67
1000 kPa, x2 = 0.3229 | – | 672.91
1000 kPa, x2 = 0.4272 | – | 677.15
1000 kPa, x2 = 0.7021 | – | 697.4
1010 kPa, x2 = 0.1231 | 677.59 | 667.83
1010 kPa, x2 = 0.2315 | – | 670.69
1010 kPa, x2 = 0.4272 | 689.57 | –
1010 kPa, x2 = 0.7021 | 711.27 | –
1010 kPa, x2 = 0.8941 | 737.45 | 724.26
1020 kPa, x2 = 0.3229 | 684.46 | –
2000 kPa, x2 = 0.1231 | – | 668.99
2000 kPa, x2 = 0.2315 | – | 671.87
2000 kPa, x2 = 0.3229 | 685.59 | –
2010 kPa, x2 = 0.1231 | 678.71 | –
2010 kPa, x2 = 0.2315 | 682.42 | –
2010 kPa, x2 = 0.4272 | 690.68 | 678.31
2010 kPa, x2 = 0.7021 | 712.38 | 698.58
2010 kPa, x2 = 0.8941 | 738.5 | –
2020 kPa, x2 = 0.3229 | – | 674.1
2020 kPa, x2 = 0.8941 | – | 725.38
3000 kPa, x2 = 0.3229 | 686.69 | –
3000 kPa, x2 = 0.4272 | 691.79 | –
3000 kPa, x2 = 0.7021 | 713.46 | –
3010 kPa, x2 = 0.1231 | 679.8 | –
3010 kPa, x2 = 0.2315 | – | 673.01
3010 kPa, x2 = 0.3229 | – | 675.25
3010 kPa, x2 = 0.4272 | – | 679.49
3010 kPa, x2 = 0.7021 | – | 699.75
3010 kPa, x2 = 0.8941 | 739.56 | 726.49
3020 kPa, x2 = 0.1231 | – | 670.15
3020 kPa, x2 = 0.2315 | 683.53 | –
4000 kPa, x2 = 0.4272 | – | 680.67
4010 kPa, x2 = 0.1231 | – | 671.29
4010 kPa, x2 = 0.2315 | 684.63 | –
4010 kPa, x2 = 0.3229 | 687.78 | 676.42
4010 kPa, x2 = 0.7021 | 714.57 | 700.94
4010 kPa, x2 = 0.8941 | – | 727.63
4020 kPa, x2 = 0.1231 | 680.88 | –
4020 kPa, x2 = 0.2315 | – | 674.2
4020 kPa, x2 = 0.4272 | 692.9 | –
4020 kPa, x2 = 0.8941 | 740.61 | –
5000 kPa, x2 = 0.1231 | 681.97 | –
5000 kPa, x2 = 0.4272 | – | 681.83
5000 kPa, x2 = 0.7021 | 715.67 | –
5010 kPa, x2 = 0.1231 | – | 672.43
5010 kPa, x2 = 0.2315 | – | 675.32
5010 kPa, x2 = 0.3229 | 688.88 | –
5010 kPa, x2 = 0.4272 | 694 | –
5010 kPa, x2 = 0.7021 | – | 702.12
5010 kPa, x2 = 0.8941 | 741.67 | 728.78
5020 kPa, x2 = 0.2315 | 685.69 | –
5020 kPa, x2 = 0.3229 | – | 677.57
6000 kPa, x2 = 0.1231 | – | 673.56
6000 kPa, x2 = 0.4272 | – | 683.02
6010 kPa, x2 = 0.1231 | 683.04 | –
6010 kPa, x2 = 0.2315 | – | 676.43
6010 kPa, x2 = 0.3229 | 689.97 | 678.73
6010 kPa, x2 = 0.4272 | 695.09 | –
6010 kPa, x2 = 0.7021 | 716.75 | 703.28
6010 kPa, x2 = 0.8941 | – | 729.91
6020 kPa, x2 = 0.2315 | 686.75 | –
6020 kPa, x2 = 0.8941 | 742.73 | –
7000 kPa, x2 = 0.2315 | – | 677.57
7000 kPa, x2 = 0.3229 | 691.04 | –
7000 kPa, x2 = 0.8941 | 743.78 | –
7010 kPa, x2 = 0.2315 | 687.82 | –
7010 kPa, x2 = 0.3229 | – | 679.88
7010 kPa, x2 = 0.4272 | 696.18 | –
7010 kPa, x2 = 0.8941 | – | 731.05
7020 kPa, x2 = 0.1231 | 684.1 | 674.7
7020 kPa, x2 = 0.4272 | – | 684.19
7020 kPa, x2 = 0.7021 | 717.84 | 704.46
8000 kPa, x2 = 0.2315 | 688.91 | –
8000 kPa, x2 = 0.3229 | – | 681.03
8000 kPa, x2 = 0.7021 | – | 705.61
8000 kPa, x2 = 0.8941 | 744.82 | –
8010 kPa, x2 = 0.1231 | – | 675.84
8010 kPa, x2 = 0.3229 | 692.11 | –
8010 kPa, x2 = 0.4272 | 697.28 | 685.36
8010 kPa, x2 = 0.8941 | – | 732.17
8020 kPa, x2 = 0.1231 | 685.16 | –
8020 kPa, x2 = 0.2315 | – | 678.73
8020 kPa, x2 = 0.7021 | 718.92 | –
9000 kPa, x2 = 0.1231 | – | 676.94
9000 kPa, x2 = 0.2315 | – | 679.85
9010 kPa, x2 = 0.1231 | 686.2 | –
9010 kPa, x2 = 0.2315 | 689.96 | –
9010 kPa, x2 = 0.3229 | 693.2 | 682.18
9010 kPa, x2 = 0.4272 | – | 686.5
9010 kPa, x2 = 0.7021 | – | 706.79
9010 kPa, x2 = 0.8941 | 745.86 | 733.3
9020 kPa, x2 = 0.4272 | 698.35 | –
9020 kPa, x2 = 0.7021 | 720.01 | –
10000 kPa, x2 = 0.2315 | 690.99 | 680.95
10000 kPa, x2 = 0.4272 | – | 687.67
10000 kPa, x2 = 0.7021 | 721.05 | –
10000 kPa, x2 = 0.8941 | 746.88 | –
10010 kPa, x2 = 0.1231 | 687.25 | 678.03
10010 kPa, x2 = 0.3229 | 694.26 | 683.34
10010 kPa, x2 = 0.7021 | – | 707.93
10010 kPa, x2 = 0.8941 | – | 734.42
10020 kPa, x2 = 0.4272 | 699.44 | –
11000 kPa, x2 = 0.3229 | 695.31 | –
11000 kPa, x2 = 0.4272 | 700.47 | –
11010 kPa, x2 = 0.1231 | 688.29 | –
11010 kPa, x2 = 0.7021 | 722.11 | –
11020 kPa, x2 = 0.2315 | 692.04 | –
11020 kPa, x2 = 0.8941 | 747.91 | –
12000 kPa, x2 = 0.3229 | 696.36 | –
12010 kPa, x2 = 0.1231 | 689.31 | –
12010 kPa, x2 = 0.2315 | 693.08 | –
12010 kPa, x2 = 0.4272 | 701.53 | –
12010 kPa, x2 = 0.8941 | 748.9 | –
12020 kPa, x2 = 0.7021 | 723.13 | –
13010 kPa, x2 = 0.4272 | 702.56 | –
13010 kPa, x2 = 0.8941 | 749.87 | –
13020 kPa, x2 = 0.1231 | 690.32 | –
13020 kPa, x2 = 0.2315 | 694.1 | –
13020 kPa, x2 = 0.3229 | 697.39 | –
13020 kPa, x2 = 0.7021 | 724.18 | –
14000 kPa, x2 = 0.1231 | 691.3 | –
14000 kPa, x2 = 0.3229 | 698.41 | –
14000 kPa, x2 = 0.8941 | 750.86 | –
14010 kPa, x2 = 0.2315 | 695.1 | –
14010 kPa, x2 = 0.7021 | 725.19 | –
14020 kPa, x2 = 0.4272 | 703.57 | –
15010 kPa, x2 = 0.1231 | 692.28 | –
15010 kPa, x2 = 0.4272 | 704.56 | –
15010 kPa, x2 = 0.7021 | 726.16 | –
15010 kPa, x2 = 0.8941 | 751.83 | –
15020 kPa, x2 = 0.2315 | 696.09 | –
15020 kPa, x2 = 0.3229 | 699.39 | –
16000 kPa, x2 = 0.8941 | 752.78 | –
16010 kPa, x2 = 0.1231 | 693.22 | –
16010 kPa, x2 = 0.7021 | 727.16 | –
16020 kPa, x2 = 0.2315 | 697.06 | –
16020 kPa, x2 = 0.3229 | 700.38 | –
16020 kPa, x2 = 0.4272 | 705.54 | –
17000 kPa, x2 = 0.1231 | 694.17 | –
17000 kPa, x2 = 0.3229 | 701.35 | –
17000 kPa, x2 = 0.4272 | 706.5 | –
17010 kPa, x2 = 0.7021 | 728.12 | –
17020 kPa, x2 = 0.2315 | 698.04 | –
17020 kPa, x2 = 0.8941 | 753.71 | –
18010 kPa, x2 = 0.1231 | 695.1 | –
18010 kPa, x2 = 0.2315 | 698.96 | –
18010 kPa, x2 = 0.7021 | 729.04 | –
18020 kPa, x2 = 0.3229 | 702.27 | –
18020 kPa, x2 = 0.4272 | 707.45 | –
18020 kPa, x2 = 0.8941 | 754.62 | –
19000 kPa, x2 = 0.2315 | 699.84 | –
19000 kPa, x2 = 0.3229 | 703.2 | –
19000 kPa, x2 = 0.7021 | 729.96 | –
19000 kPa, x2 = 0.8941 | 755.52 | –
19010 kPa, x2 = 0.1231 | 695.98 | –
19010 kPa, x2 = 0.4272 | 708.36 | –
20000 kPa, x2 = 0.4272 | 709.29 | –
20010 kPa, x2 = 0.1231 | 696.86 | –
20010 kPa, x2 = 0.2315 | 700.72 | –
20010 kPa, x2 = 0.3229 | 704.07 | –
20010 kPa, x2 = 0.7021 | 730.88 | –
20020 kPa, x2 = 0.8941 | 756.41 | –
